How the values were obtained:
[1] = biological target: gmk/TK-trunc fusion protein (murine guanylate kinase fused to wild-type HSV-1 TK without its first nine amino acids; pET23d:gmk/TK-trunc) (UniProt P0DTH5+Q64520); details: Table X; purified from E. coli
[2] = biological target: gmk/TK-fl fusion protein (murine guanylate kinase fused to the entire wild-type HSV-1 TK; pET23d:gmk/TK-fl) (UniProt P0DTH5+Q64520); details: Table X; purified from E. coli
[3] = tested on: ts13 BHK tk- cells transfected with pCMV:132 (HSV-1 TK mutant 132); assay: Cell killing by GCV and ACV, Alamar Blue viability (ED50); format: cell-based, baby hamster; details: Mesocricetus auratus, 96 h; effective dose for 50% cell killing, after 4 days on nucleoside analog, pooled G418 resistant clones
Description: (§1) Briefly, the cell transfections are performed as follows. Approximately 5 x 10^5 ts13 BHK tk cells (ATCC CRL-1632) are plated on 100mm dishes in DMEM + 10% calf serum. For each transfection 1 µg of pSV2neo and 10µg of a pCMV construct (pCMV, pCMV:TK-wrong (HSVTK in the wrong orientation relative to the promoter), pCMV:HSVTK, pCMV:30, pCMV:75 or pCMV:132 DNA) in 0.25M CaCl2 are mixed with 0.5ml 2 x BBS (see Chen and Okayama) and preincubated at 37°C at 2.5% CO2 for […]. The CaCl2/DNA mix is added dropwise to the plates and mixed in well. After a 24 hour incubation at 37°C in a 2.5% CO2 wet incubator, the cells are rinsed twice with Dulbecco PBS minus Ca/Mg and fed with fresh DMEM + 10% calf serum. Plates are incubated at 37°C with 6% CO2. After 72 hours post-transfection the cells are split 1:3 and plated in DMEM + 10% calf serum containing G418 at 600µg/ml.
(§2) The cells are selected on G418 (600µg/ml) at 37°C for 17 days. […]. Approximately 30-40 clones are selected in this manner for each transfected DNA containing a tk gene in the correct orientation. The pCMV and pCMV:TK-wrong transfections yielded between 130 and 140 clones each. G418 resistant clones are harvested, pooled and plated at a density of 2000 cells/well in 100µl DMEM + 10% calf serum and 200µg/ml G418 + 6% CO2 in 96 well microtiter plates. […]. After three days in the presence of the nucleoside analog, Alamar Blue is added and 6 hours later the plates are scanned using a fluorometer as according to the manufacturer's protocol (Alamar Biosciences, Inc., Sacramento, CA). The plates are incubated a further 24 hours at 37°C and scanned again.
(§3) Determination of the fluorescence level of cells incubated in the presence of Alamar Blue directly relates to cell viability.

[4] = tested on: ts13 BHK tk- cells transfected with pCMV:30 (HSV-1 TK mutant 30); assay: as above; format: cell-based, baby hamster; details: Mesocricetus auratus, 96 h; effective dose for 50% cell killing, after 4 days on nucleoside analog, pooled G418 resistant clones
Description: as §1, §2, §3

[5] = tested on: ts13 BHK tk- cells transfected with pCMV:75 (HSV-1 TK mutant 75); assay: as above; format: cell-based, baby hamster; details: Mesocricetus auratus, 96 h; effective dose for 50% cell killing, after 4 days on nucleoside analog, pooled G418 resistant clones
Description: as §1, §2, §3

[6] = tested on: ts13 BHK tk- cells transfected with pCMV:HSVTK (wild-type HSV-1 TK); assay: as above; format: cell-based, baby hamster; details: Mesocricetus auratus, 96 h; effective dose for 50% cell killing, after 4 days on nucleoside analog, pooled G418 resistant clones
Description: as §1, §2, §3

[7] = tested on: Rat C6 cells expressing TK mutant 30; assay: Rat C6 kill curves with GCV and ACV; format: cell-based; details: Table VIII
Description: (§4) The seven mutants were subcloned into the mammalian expression vector, pREP8D7:dualGFP. This vector contains a constitutive metallothionin promoter, which drives the expression of green flourescent protein (GFP), and an RSV LTR promoter, which stimulated expression of the TK mutants. The vector also contains a histidinol resistance gene for selection of transformants. Purified vector DNA of these constructs was used to transfect BHK tk- cells by electroporation. The transfectants were selected by resistance to histidinol and sorted using FACS analysis for GFP expression. Pools of transfectants were then assayed for sensitivity to GCV or ACV over a range of prodrug doses. […] Table VIII illustrates the IC50 values from Rat C6 kill curves with the SR11, SR26, and SR39 mutants.

[8] = tested on: Rat C6 cells expressing TK mutant 411; assay: Rat C6 kill curves with GCV and ACV; format: cell-based; details: Table VIII
Description: as §4

[9] = tested on: Rat C6 cells expressing TK mutant 75; assay: Rat C6 kill curves with GCV and ACV; format: cell-based; details: Table VIII
Description: as §4

[10] = tested on: Rat C6 cells expressing TK mutant SR11; assay: Rat C6 kill curves with GCV and ACV; format: cell-based; details: Table VIII
Description: as §4

[11] = tested on: Rat C6 cells expressing TK mutant SR26; assay: Rat C6 kill curves with GCV and ACV; format: cell-based; details: Table VIII
Description: as §4

[12] = tested on: Rat C6 cells expressing TK mutant SR39; assay: Rat C6 kill curves with GCV and ACV; format: cell-based; details: Table VIII
Description: as §4

[13] = tested on: Rat C6 cells expressing wild-type TK; assay: Rat C6 kill curves with GCV and ACV; format: cell-based; details: Table VIII
Description: as §4

[14] = tested on: rat C6 cells expressing gmk/TK-trunc fusion protein; assay: Ganciclovir dose response curve, fusion protein against wild-type TK; format: cell-based; details: Figure 31; fusion protein being the superior one
[15] = tested on: rat C6 glioblastoma cells transfected with TK mutant 30, subcutaneous tumor; assay: Mouse xenograft tumor model with prodrug treatment; format: in vivo, Nude mice; details: prodrug twice a day for 5 days from day 5; Figures 32-34
Description: (§5) Rat C6 glioblastoma cells were transfected with the stable expression vector pREP8D7:dualGFP as described above containing various TK mutants. […] Experiments were carried out to establish prodrug dosing levels for tumor ablation and efficacy of therapy. Nude mice (JAX Labs, Bar Harbor, Maine) were injected subcutaneously with 0.5 x10^6 transfected rat C6 cells. After 5 days, prodrugs (ACV and GCV) were administered twice a day for a further 5 days. Prodrug was given at either of two concentrations (shown as mg/kg). During this period and for an additional 6 days, tumor size was monitored by caliper measurement every other day. At the end of the period, mice were sacrificed and the tumors excised and weighed.

[16] = tested on: rat C6 glioblastoma cells transfected with TK mutant SR39, subcutaneous tumor; assay: Mouse xenograft tumor model with prodrug treatment; format: in vivo, Nude mice; details: prodrug twice a day for 5 days from day 5; Figures 32-34
Description: as §5

[17] = biological target: T1, HSV-1 thymidine kinase mutant 75 (LIF-ALL library, codons 159-161 and 168-170 randomized; pET23d:75) (Human herpesvirus 1, UniProt P0DTH5); details: Table V
T1 sequence (P0DTH5 1-376): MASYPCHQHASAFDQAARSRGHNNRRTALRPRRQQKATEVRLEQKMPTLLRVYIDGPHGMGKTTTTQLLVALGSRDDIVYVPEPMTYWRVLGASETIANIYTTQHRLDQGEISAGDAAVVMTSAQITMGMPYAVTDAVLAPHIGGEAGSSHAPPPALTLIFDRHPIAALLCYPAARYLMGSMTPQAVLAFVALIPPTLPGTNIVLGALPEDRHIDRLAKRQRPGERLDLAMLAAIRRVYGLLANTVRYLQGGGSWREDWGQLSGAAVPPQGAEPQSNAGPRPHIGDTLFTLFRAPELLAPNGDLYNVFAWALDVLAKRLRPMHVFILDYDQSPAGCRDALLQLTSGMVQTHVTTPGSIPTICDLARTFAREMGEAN
Description: The culture is incubated at 37°C overnight. The following day the 5ml culture is used to inoculate 1L M9ZB + cabenicillin at 20µg/ml and the culture allowed to grow at 37°C to OD600 0.1. At that point IPTG is added to 0.4mM and the culture incubated a further 3 hours. The cells are chilled on ice, pelleted by centrifugation and the pellets washed once in cell wash buffer (50mM Tris, pH 7.5, 5mM EDTA, 10% sucrose) prior to freezing the pellets at -70°C. The next day the cells are resuspended in 12ml Buffer 1 (50mM Tris, pH 7.5, 10% sucrose, 2mM DTT, 5mM EDTA, 1mM PMSF) and the volume split into two 13ml Oakridge ultracentrifuge tubes. 1ml Buffer 1 containing 3mg lysozyme is added to each tube and the tubes left on ice for 1 hr. […] The cleared supernatant is then aliquoted and frozen at -70°C.
The 1ml bed volume column is prepared by passing 10ml Buffer 1 followed by 10ml Absorption Buffer (50mM Tris, pH 7.5, 10% sucrose, 2mM DTT, 25mM MgAc2, 10mM ATP) over the column. Two ml of the cleared lysate is mixed with 2 ml of Absorption Buffer and passed through a 0.2µm filter. This mix is passed over the column 3 times. The column is washed with 5ml Absorption buffer three times and the 5ml fractions collected. […] The column is reactivated by loading on 10ml High Salt Buffer (50mM Tris, pH 7.5, 10% sucrose, 2mM DTT, 0.5M KCl) and 10ml 50mM Tris, pH 7.5. The column is stored in 50mM Tris pH 7.5 + 0.004% sodium azide. The extent of purification is monitored by Coomassie stained SDS:PAGE analysis and the concentration of purified protein determined using the BioRad Reagent (Bradford Reagent).
Km and Vmax values are determined from double reciprocal plots and kcat values are calculated using the equation Vmax = kcat [Eo] where [Eo] is the total enzyme concentration. The BioRad reagent was used to determine the total enzyme concentration of purified thymidine kinase enzymes.

SMILES	Km [1] [µM]	Km [2] [µM]	IC50 [3] [nM]	IC50 [4] [nM]	IC50 [5] [nM]	IC50 [6] [nM]	IC50 [7] [nM]	IC50 [8] [nM]	IC50 [9] [nM]	IC50 [10] [nM]	IC50 [11] [nM]	IC50 [12] [nM]	IC50 [13] [nM]	difference in IC50 between fusion protein and wild-type TK [14] [fold]	tumor reduction (tumor diameter, final tumor weight) [15]	tumor reduction (tumor diameter, final tumor weight) [16]	Km ([17]; double reciprocal plots) [µM]	kcat ([17]; per active site)
Nc1nc2c(ncn2[C@@H]2O[C@H](COP(=O)(O)O)[C@@H](O)[C@H]2O)c(=O)[nH]1 [GMP]	95	146																
Nc1nc2c(ncn2[C@H]2C[C@H](O)[C@@H](COP(=O)(O)O)O2)c(=O)[nH]1 [dGMP]	218	359																
Nc1nc(O)c2ncn(COC(CO)CO)c2n1 [ganciclovir]			18000	4400	470	20000	10	100	> 1000	150	40	17	5000	100	significant tumor reduction	significant tumor reduction	10	.050 s⁻¹

Reference: EP1914304A1 (priority 1998, dated 1999)
